These are literature values, as cited in patent US12318461B2, “Salicylic acid gel” (Vantage Specialty Ingredients, Inc., priority 2012, dated 2025).

As to `O=C(O)c1ccccc1O` [Salicylic acid, 2-hydroxybenzenecarboxylic acid], the solubility in water entry is on record as “poorly soluble”.
